Assay results reported in ChEMBL document CHEMBL6071165, “Design, synthesis and biological evaluation of plant-derived miliusol derivatives achieve TNBC profound regression in vivo” (Eur J Med Chem, 2024).

Columns and labels:
BT-549 [1] = assay: Antiproliferative activity against human BT-549 cells assessed as inhibition of cell proliferation incubated for 24 hrs by MTT assay; assay type: functional, cell-based; details: BT-549, 24 h
BT-549 [2] = assay: Antiproliferative activity against human BT-549 cells assessed as inhibition of cell proliferation incubated for 48 hrs by MTT assay; assay type: functional, cell-based; details: BT-549, 48 h
MDA-MB-231 [3] = assay: Antiproliferative activity against human MDA-MB-231 cells assessed as inhibition of cell proliferation incubated for 24 hrs by MTT assay; assay type: functional, cell-based; details: MDA-MB-231, 24 h
MDA-MB-231 [4] = assay: Antiproliferative activity against human MDA-MB-231 cells assessed as inhibition of cell proliferation incubated for 48 hrs by MTT assay; assay type: functional, cell-based; details: MDA-MB-231, 48 h
BT-549 [5] = assay: Potency index, ratio of miliusol IC50 to test compound IC50 for antiproliferative activity against human BT-549 cells assessed as inhibition of cell proliferation incubated for 48 hrs by MTT assay; assay type: functional
[6] = Potency index, ratio of miliusol IC50 to test compound IC50 for antiproliferative activity against human MDA-MB-231 cells assessed as inhibition of cell proliferation incubated for 48 hrs by MTT assay; assay type: functional
[7] = Antiproliferative activity against human MCF-10A cells assessed as inhibition of cell proliferation incubated for 24 hrs by MTT assay; assay type: toxicity, cell-based
[8] = Antiproliferative activity against human MCF-10A cells assessed as inhibition of cell proliferation incubated for 48 hrs by MTT assay; assay type: toxicity, cell-based
[9] = (§1) Selectivity ratio of IC50 for antiproliferative activity against human MCF-10A cells assessed as inhibition of cell proliferation incubated for 24 hrs by MTT assay to IC50 for antiproliferative activity against human BT-549 cells assessed as inhibition of cell proliferation incubated for 24 hrs by MTT assay; assay type: toxicity, cell-based; details: MCF-10A cells versus BT-549 cells, read-out: Ratio IC50
[10] = as §1, with “48” for “24”; assay type: toxicity, cell-based; details: MCF-10A cells versus BT-549 cells, read-out: Ratio IC50
[11] = as §1, with “MDA-MB-231” for “BT-549”; assay type: cell-based; details: MCF-10A cells versus MDA-MB-231 cells, read-out: Ratio IC50
[12] = as §1, with “48” for “24”, “MDA-MB-231” for “BT-549”; assay type: cell-based; details: MCF-10A cells versus MDA-MB-231 cells, read-out: Ratio IC50

| IC50 (BT-549 [1]) [µM] | IC50 (BT-549 [2]) [µM] | IC50 (MDA-MB-231 [3]) [µM] | IC50 (MDA-MB-231 [4]) [µM] | Structure (SMILES) | Ratio IC50 (BT-549 [5]) | Ratio IC50 [6] | IC50 at 24 h [7] [µM] | IC50 at 48 h [8] [µM] | selectivity ratio at 24 h [9] | selectivity ratio at 48 h [10] | selectivity ratio at 24 h [11] | selectivity ratio at 48 h [12] |
| --- | --- | --- | --- | --- | --- | --- | --- | --- | --- | --- | --- | --- |
| 19.2 | 11 | 43.6 | 12.4 | CCC/C=C/C(=O)O[C@@H]1C=CC(=O)[C@@]2(CC(=O)O[C@@H]2/C=C(\C)CCC=C(C)C)C1 |  |  |  |  |  |  |  |  |
| 19.4 | 2.87 | 8.85 | 1.66 | CC(C)=CCC/C(C)=C/[C@H]1OC(=O)C[C@]12C[C@H](OC(=O)/C=C/C=C/c1ccc3c(c1)OCO3)C=CC2=O |  |  |  |  |  |  |  |  |
| 2.09 | 1.45 | 1.3 | 0.78 | COc1cccc(OC)c1C(=O)Nc1ccc(CC(=O)O[C@@H]2C=CC(=O)[C@@]3(CC(=O)O[C@@H]3/C=C(\C)CCC=C(C)C)C2)cc1 |  |  |  |  |  |  |  |  |
| 1.04 | 0.58 | 0.63 | 0.42 | CC(C)=CCC/C(C)=C/[C@H]1OC(=O)C[C@]12C[C@H](OC(=O)Cc1ccc(NC(=O)[C@H](Cl)c3ccccc3)cc1)C=CC2=O |  |  |  |  |  |  |  |  |
| 5.33 | 0.98 | 9.54 | 1.91 | COC(=O)C[C@@]12C[C@@H](C=CC1=O)O[C@@H]2/C=C(\C)CCC=C(C)C |  |  |  |  |  |  |  |  |
| 6.81 | 3.38 | 2.23 | 2.77 | CC(C)=CCC/C(C)=C/[C@H]1OC(=O)C[C@]12C[C@H](OC(=O)Cc1ccc3c(c1)OCO3)C=CC2=O |  |  |  |  |  |  |  |  |
| 7.01 | 4.19 | 4.73 | 2.16 | CC(=O)Nc1ccc(CC(=O)O[C@@H]2C=CC(=O)[C@@]3(CC(=O)O[C@@H]3/C=C(\C)CCC=C(C)C)C2)cc1 |  |  |  |  |  |  |  |  |
| 2.24 | 0.64 | 1.63 | 0.46 | CC(C)=CCC/C(C)=C/[C@H]1OC(=O)C[C@]12C[C@H](OC(=O)Cc1ccc(NC(=O)c3cccs3)cc1)C=CC2=O |  |  |  |  |  |  |  |  |
| 1.56 | 0.67 | 1.29 | 0.54 | COc1ccccc1C(=O)Nc1ccc(CC(=O)O[C@@H]2C=CC(=O)[C@@]3(CC(=O)O[C@@H]3/C=C(\C)CCC=C(C)C)C2)cc1 |  |  |  |  |  |  |  |  |
| 3.31 | 1.55 | 3.33 | 1.34 | CC(C)=CCC/C(C)=C/[C@H]1OC(=O)C[C@]12C[C@H](OC(=O)CCC(=O)NCC1CC3C=CC1C3)C=CC2=O (stereo not given in full) |  |  |  |  |  |  |  |  |
| 2.48 | 0.84 | 0.96 | 0.58 | CC(C)=CCC/C(C)=C/[C@H]1OC(=O)C[C@]12C[C@H](OC(=O)Cc1ccc(NC(=O)c3ccccc3Cl)cc1)C=CC2=O |  |  |  |  |  |  |  |  |
| 2.03 | 1.32 | 0.46 | 1.03 | CC(C)=CCC/C(C)=C/[C@H]1OC(=O)C[C@]12C[C@H](OC(=O)Cc1ccc(NC(=O)OC(C)(C)C)cc1)C=CC2=O |  |  |  |  |  |  |  |  |
| 4.93 | 2.14 | 3.07 | 5.07 | CC(C)=CCC/C(C)=C/[C@H]1OC(=O)C[C@]12C[C@H](OC(=O)Cc1ccc(F)cc1Cl)C=CC2=O |  |  |  |  |  |  |  |  |
| 10.4 | 1.22 | 2.51 | 1.34 | CC(C)=CCC/C(C)=C/[C@H]1OC(=O)C[C@]12C[C@H](OC(=O)c1cc3ccccc3n1C)C=CC2=O |  |  |  |  |  |  |  |  |
| 5.38 | 3.47 | 2.84 | 4.42 | CC(C)=CCC/C(C)=C/[C@H]1OC(=O)C[C@]12C[C@H](OC(=O)Cn1cnc3c(=O)n(C)c(=O)n(C)c31)C=CC2=O |  |  |  |  |  |  |  |  |
| 15.6 | 8.23 | 19 | 35.4 | CC(C)=CCC/C(C)=C/[C@H]1OC(=O)C[C@]12C[C@H](OC(=O)Cc1ccc(Cl)cc1Cl)C=CC2=O |  |  |  |  |  |  |  |  |
| 8.71 | 3.11 | 4.54 | 1.62 | C=CC(=O)Nc1ccc(CC(=O)O[C@@H]2C=CC(=O)[C@@]3(CC(=O)O[C@@H]3/C=C(\C)CCC=C(C)C)C2)cc1 |  |  |  |  |  |  |  |  |
| 1.75 | 0.8 | 1.36 | 0.57 | CC(C)=CCC/C(C)=C/[C@H]1OC(=O)C[C@]12C[C@H](OC(=O)Cc1ccc(NC(=O)C(C)(C)C)cc1)C=CC2=O |  |  |  |  |  |  |  |  |
| 0.39 | 0.37 | 2.22 | 0.73 | CC(C)=CCC/C(C)=C/[C@H]1OC(=O)C[C@]12C[C@H](OC(=O)Cc1ccc(NC(=O)c3ccccc3)cc1)C=CC2=O |  |  |  |  |  |  |  |  |
| 4.21 | 2.26 | 8.14 | 4.23 | COC(=O)C[C@@]1([C@H](O)/C=C(\C)CCC=C(C)C)C[C@H](O)C=CC1=O [(+)-MILIUSANE XVIII] |  |  |  |  |  |  |  |  |
| 2.11 | 1.14 | 1.66 | 3.2 | CC(C)=CCC/C(C)=C/[C@H]1OC(=O)C[C@]12C[C@H](OC(=O)CNC(=O)OC(C)(C)C)C=CC2=O | 2.7 | 1.5 |  |  |  |  |  |  |
| 4.85 | 3.04 | 4.19 | 4.68 | CC(C)=CCC/C(C)=C/[C@H]1OC(=O)C[C@]12C[C@H](O)C=CC2=O |  |  |  |  |  |  |  |  |
| 0.99 | 0.22 | 0.85 | 0.44 | CC(C)=CCC/C(C)=C/[C@H]1OC(=O)C[C@]12C[C@H](OC(=O)Cc1ccc(NC(=O)/C=C/c3ccccc3)cc1)C=CC2=O |  |  |  |  |  |  |  |  |
| 5.03 | 0.62 | 3.43 | 2.06 | CC(C)=CCC/C(C)=C/[C@H]1OC(=O)C[C@]12C[C@H](OC(=O)c1csc(Br)n1)C=CC2=O | 5 |  |  |  |  |  |  |  |
| 8.31 | 3.9 | 6.35 | 2.41 | CC(C)=CCC/C(C)=C/[C@H]1OC(=O)C[C@]12C[C@H](OC(=O)Cn1nnc3ccccc31)C=CC2=O |  |  |  |  |  |  |  |  |
| 2.3 | 0.23 | 1.09 | 0.56 | CC(C)=CCC/C(C)=C/[C@H]1OC(=O)C[C@]12C[C@H](OC(=O)Cc1ccc(NC(=O)C3CC3)cc1)C=CC2=O |  |  |  |  |  |  |  |  |
| 10.1 | 2.46 | 4.82 | 4.14 | CC(C)=CCC/C(C)=C/[C@H]1OC(=O)C[C@]12C[C@H](OC(=O)Cc1cccs1)C=CC2=O |  |  |  |  |  |  |  |  |
| 0.28 | 0.05 | 1.72 | 0.45 | CC(=O)O[C@H]1C(=O)[C@@]2(C)[C@H]([C@H](OC(=O)c3ccccc3)[C@]3(O)C[C@H](OC(=O)[C@H](O)[C@@H](NC(=O)c4ccccc4)c4ccccc4)C(C)=C1C3(C)C)[C@]1(OC(C)=O)CO[C@@H]1C[C@@H]2O [PACLITAXEL] |  |  | 0.33 | 0.09 | 1.18 | 1.8 | 0.19 | 0.2 |
| 3.03 | 2.22 | 5 | 7.48 | CC(C)=CCC/C(C)=C/[C@H]1OC(=O)C[C@]12C[C@H](OC(=O)Cc1ccc(F)cc1)C=CC2=O |  |  |  |  |  |  |  |  |
